Experimental data: ChEMBL document CHEMBL1955863, “Intramolecular hydrogen bonding: a potential strategy for more bioavailable inhibitors of neuronal nitric oxide synthase” (Bioorg Med Chem, 2012)

Key:
[1] = target: T1, Nitric oxide synthase 1 (Rattus norvegicus, UniProt P29476); experiment: Inhibition of recombinant rat nNOS expressed in Escherichia coli by hemoglobin capture assay
[2] = target: T1, Nitric oxide synthase 1; experiment: Inhibition of rat nNOS expressed in HEK293T cells preincubated for 30 mins prior A23187-induced activation measured after 6 hrs by Griess assay; assay type: cell-based, HEK-293T
[3] = Selectivity ratio of Ki for bovine eNOS to Ki for rat nNOS
[4] = Selectivity ratio of Ki for mouse iNOS to Ki for rat nNOS

T1 sequence (P29476 whole entry): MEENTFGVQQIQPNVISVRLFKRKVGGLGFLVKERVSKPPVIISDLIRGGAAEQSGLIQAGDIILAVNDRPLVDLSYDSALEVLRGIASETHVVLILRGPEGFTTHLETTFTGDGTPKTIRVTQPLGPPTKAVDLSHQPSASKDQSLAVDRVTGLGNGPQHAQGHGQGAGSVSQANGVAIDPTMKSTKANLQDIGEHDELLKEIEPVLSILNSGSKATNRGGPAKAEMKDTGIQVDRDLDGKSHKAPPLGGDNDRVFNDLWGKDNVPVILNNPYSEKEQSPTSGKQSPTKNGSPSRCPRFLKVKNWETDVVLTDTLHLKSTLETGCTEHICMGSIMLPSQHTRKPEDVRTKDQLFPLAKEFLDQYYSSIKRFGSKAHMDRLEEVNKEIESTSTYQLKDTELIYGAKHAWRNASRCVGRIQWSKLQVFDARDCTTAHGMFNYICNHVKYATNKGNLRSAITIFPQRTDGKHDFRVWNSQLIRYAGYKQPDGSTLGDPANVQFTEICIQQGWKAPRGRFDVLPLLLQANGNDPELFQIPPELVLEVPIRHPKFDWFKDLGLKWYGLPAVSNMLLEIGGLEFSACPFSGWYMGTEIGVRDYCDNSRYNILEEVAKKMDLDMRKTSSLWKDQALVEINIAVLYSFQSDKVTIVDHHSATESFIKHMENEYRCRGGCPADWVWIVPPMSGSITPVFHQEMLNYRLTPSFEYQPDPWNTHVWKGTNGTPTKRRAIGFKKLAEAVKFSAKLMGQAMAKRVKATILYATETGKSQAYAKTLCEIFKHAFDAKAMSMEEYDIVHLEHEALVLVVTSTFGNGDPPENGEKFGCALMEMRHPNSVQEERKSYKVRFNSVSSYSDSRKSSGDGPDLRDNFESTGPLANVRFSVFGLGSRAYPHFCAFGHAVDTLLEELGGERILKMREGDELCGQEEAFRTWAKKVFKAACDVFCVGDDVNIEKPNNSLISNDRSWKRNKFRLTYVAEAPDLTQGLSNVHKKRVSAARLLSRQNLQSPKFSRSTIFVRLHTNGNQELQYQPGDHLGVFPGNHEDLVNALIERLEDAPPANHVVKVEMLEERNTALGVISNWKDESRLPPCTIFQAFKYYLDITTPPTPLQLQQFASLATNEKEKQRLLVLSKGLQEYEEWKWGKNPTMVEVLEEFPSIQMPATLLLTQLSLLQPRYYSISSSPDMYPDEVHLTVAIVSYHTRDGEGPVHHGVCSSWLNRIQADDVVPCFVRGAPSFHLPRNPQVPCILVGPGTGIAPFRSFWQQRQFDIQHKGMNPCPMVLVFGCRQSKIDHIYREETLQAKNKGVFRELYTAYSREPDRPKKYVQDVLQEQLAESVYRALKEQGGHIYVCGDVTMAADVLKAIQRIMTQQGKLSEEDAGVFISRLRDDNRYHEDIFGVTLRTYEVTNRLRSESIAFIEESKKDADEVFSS

Row | Structure (SMILES) | IC50 [1] | IC50 [2] | Ratio Ki [3] | Ratio Ki [4]
1 | Cc1cc(C)nc(N)c1 | 50 nM | 25 µM |  | 
2 | Cc1cc(N)nc(C[C@H]2CNC[C@H]2OCCNCc2ccco2)c1 |  | 100 µM | 169 | 92
3 | Cc1cc(N)nc(C[C@H]2CNC[C@H]2OCCNCc2ccccc2O)c1 |  | 43 µM | 93 | 143
4 | Cc1cc(N)nc(C[C@H]2CNC[C@H]2OCCNCc2ccccc2F)c1 |  | 11 µM | 98 | 105
5 | COc1ccccc1CNCCO[C@@H]1CNC[C@@H]1Cc1cc(C)cc(N)n1 |  | 22 µM | 93 | 139
